From patent US20250154686A1, “COMPOUND LIBRARY” (CHUGAI SEIYAKU KABUSHIKI KAISHA, priority 2021, published 2025)

What was measured:
[1] = target: T1, Bcl-2 protein (Recombinant Human Bcl-2 Protein) (Homo sapiens, UniProt P10415); assay: AS-MS evaluation of binding of the mixture libraries of Examples 8 and 9 to Bcl-2, ASMS ratio (%), Example 11; conditions: positive controls added to the mixtures of Examples 8 and 9; final compound concentration 100 nM
T1 construct: purchased Novus Biologicals NBP2-34889
Procedure: DMSO solutions (prepared into approximately 5 mM based on calculation from the average molecular weight of each mixture) of the mixtures of each Example shown in Table 11-1-1 were respectively dispensed to 8 wells of MICROPLATE, 96-WELL, PP, V-BOTTOM (Greiner Bio-One International GmbH, 651201). 400 nL each from the 8 wells of the mixtures obtained from Example 8 was dispensed into 3 designated wells while 200 nL each from the 8 wells of the mixtures obtained from Example 9 was dispensed into 3 designated wells, using LABCYTE ECHO® 555 acoustic dispensing system (Beckman Coulter, Inc.). 200 nL each of two types of 10 μM positive controls (B2Q045-01 and B2Q048-01) was dispensed to the mixtures obtained from Example 8. Likewise, 100 nL each of two types of 20 μM positive controls and 400 nL of a DMSO solution by backfill was dispensed to the mixtures obtained from Example 9. Further, Bcl-2 protein (Novus Biologicals, NBP2-34889, Recombinant Human Bcl-2 Protein, Lot E60145051) (19.2 μL) prepared at 5 µM (final protein concentration) for the mixtures obtained from Example 8 and 10 µM (final protein concentration) for the mixtures obtained from Example 9, in advance using a Tris-HCl buffer (25 mM Tris-HCl, pH 7.4, 150 mM NaCl, 0.025% Tween-20, and 1 mM DTT) was added to the well containing the dispensed 1000 compounds or 500 compounds (final compound concentration: 100 nM), and the plate was incubated at 23° C. for 1 hour in the dark. Subsequently, 200 μL of an assay buffer (25 mM Tris-HCl, pH 7.4, 150 mM NaCl, 0.025% Tween-20, and 1 mM DTT) was centrifuged three times at 2000×G at 4° C. for 2 minutes using 96-well MacroSpin column, P-2 Material (Harvard Bioscience, Inc., 74-5655) that had been allowed to swell to condition the 96-well MacroSpin column. Subsequently, 20 μL of the sample thus incubated was added to the 96-well MacroSpin column, P-2 Material after the completion of conditioning, and SEC treatment was performed by centrifugation at 2000×G for 2 minutes. 32 μL of a 1:1 mixed solution of acetonitrile and methanol (LC/MS grade, FUJIFILM Wako Pure Chemical Corp.) was added to a flow-through liquid from SEC, and the mixture was centrifuged at 1800×G at 4° C. for 5 minutes. The supernatant was used as analysis sample ASMS (A). By a similar operation, a sample prepared at 500 compounds/well or 1000 compounds/well and supplemented with only a Tris-HCl buffer containing no Bcl-2 protein was incubated under the same conditions as above, and the same organic solvent as above was added thereto without 96-well MacroSpin column treatment. A supernatant obtained by a centrifugation operation was used as STD (B). Next, by a similar operation, a sample prepared at 1000 compounds/well or 500 compounds/well and supplemented with only a Tris-HCl buffer containing no Bcl-2 protein was incubated under the same conditions as above and treated with 96-well MacroSpin column in the same manner as above, and the same organic solvent as above was added thereto. A supernatant obtained by a centrifugation operation was used as BK (C). These samples were measured by reverse-phase LC/MS.
Then, the samples A, B and C were analyzed for the 1000 compounds or 500 compounds using TraceFinder 5.1 (Thermo Fisher Scientific Inc.) and CHANCE Software (in-house), and an ASMS ratio (%) was calculated according to the following expression.
The mixtures obtained from Example 8 were tested at the number of data of 2 (N1 and N2) in order to ensure reproducibility. The mixtures obtained from Example 9 were tested at the total number of data 4 (N1,N2, N3, and N4) involving the number of data of 2/day (N1 and N2) and data obtained on additional days.

[2] = target: T1, Bcl-2 protein (Recombinant Human Bcl-2 Protein); assay: AS-MS evaluation of binding of the Example 4 mixture library (1200 compounds/well) to Bcl-2, ASMS ratio (%)
Procedure, shortened: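 Binding is read as an ASMS ratio from reverse-phase LC/MS peak data. Samples: 1200 compounds at 20 nM each with 20 μM Bcl-2, 1 h at 23 °C in the dark, then P-2 SEC and organic-solvent extraction; references lacked protein, with and without SEC.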

[3] = AS-MS, Example 4 mixture library, Bcl-2, replicate n = 1
[4] = AS-MS, Example 4 mixture library, Bcl-2, replicate n = 2
[5] = AS-MS, mixture of 1200 compounds/well, Bcl-2 protein, replicate n = 1
[6] = AS-MS, mixture of 1200 compounds/well, Bcl-2 protein, replicate n = 2
[7] = replicate n = 1, mixture library, value belongs to the MS peak assigned to the compound
[8] = replicate n = 2, mixture library, value belongs to the MS peak assigned to the compound

T1 sequence (P10415 whole entry): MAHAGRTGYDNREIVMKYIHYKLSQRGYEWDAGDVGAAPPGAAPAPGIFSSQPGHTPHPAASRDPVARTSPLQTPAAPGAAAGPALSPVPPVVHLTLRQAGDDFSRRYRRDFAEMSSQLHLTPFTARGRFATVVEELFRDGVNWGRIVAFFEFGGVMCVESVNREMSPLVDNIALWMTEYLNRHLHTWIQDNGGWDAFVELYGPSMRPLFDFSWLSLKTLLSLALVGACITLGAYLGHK

SMILES | ASMS ratio (%) n = 1 [2, 3] | ASMS ratio (%) n = 2 [2, 4] | also measured
CCOc1cccc(-c2ccccc2CN2CCN(c3ccc(C(=O)NS(=O)(=O)c4ccc(NCCSc5ccccc5)c([N+](=O)[O-])c4)cc3)CC2)c1 [Compound B2Q045-01, 4-[4-[[2-(3-ethoxyphenyl)phenyl]methyl]piperazin-1-yl]-N-[3-nitro-4-(2-phenylsulfanylethylamino)phenyl]sulfonylbenzamide] |  |  | binding to Bcl-2 detected by AS-MS [1]: binding to Bcl-2 was detected
CCOc1cncc(-c2ccccc2CN2CCN(c3ccc(C(=O)NS(=O)(=O)c4ccc(NCCSc5ccccc5)c([N+](=O)[O-])c4)cc3)CC2)c1 [Compound B2Q046-01, 4-[4-[[2-(5-ethoxypyridin-3-yl)phenyl]methyl]piperazin-1-yl]-N-[3-nitro-4-(2-phenylsulfanylethylamino)phenyl]sulfonylbenzamide] |  |  | binding to Bcl-2 detected by AS-MS [1]: binding to Bcl-2 was detected
CCCNC(=O)c1ccc(N2CCN(C(=O)c3ccc(-c4cncc(OCC)c4)c(F)c3)CC2)nn1 [Compound B1M006-01] |  |  | ASMS ratio (%) n = 1 [2, 5]: 0.0%; ASMS ratio (%) n = 2 [2, 6]: 0.0%
CCOc1cccc(-c2ccc(CN3CCN(c4ccc(C(=O)NS(=O)(=O)C(C)(C)C)nn4)CC3)c(OC)c2)c1 [Compound B2L079-01] |  |  | ASMS ratio (%) n = 1 [2, 7]: 0.0%; ASMS ratio (%) n = 2 [2, 8]: 0.0%
CCOc1cncc(-c2cc(CN3CCN(c4ccc(C(=O)NS(C)(=O)=O)nn4)CC3)cc(OCC)c2)c1 [Compound B2I082-01, 6-[4-[[3-Ethoxy-5-(5-ethoxypyridin-3-yl)phenyl]methyl]piperazin-1-yl]-N-methylsulfonylpyridazine-3-carboxamide] |  |  | ASMS ratio (%) n = 1 [2, 7]: 0.0%; ASMS ratio (%) n = 2 [2, 8]: 1.9%
CCOc1cncc(-c2cc(CN3CCN(c4ccc(C(=O)NS(=O)(=O)C(C)(C)C)nn4)CC3)cc(OC(F)(F)F)c2)c1 [Compound B2L090-01] | 0.0% | 0.0% | 
CCCNC(=O)c1ccc(N2CCN(C(=O)c3cc(-c4cccc(OCC)c4)cc(C(C)(C)C)c3)CC2)nn1 [Compound B1M015-01] |  |  | ASMS ratio (%) n = 1 [2, 5]: −2.4%; ASMS ratio (%) n = 2 [2, 6]: −3.0%
CCOc1cncc(-c2ccccc2CN2CCN(c3ccc(C(=O)NS(=O)(=O)C(C)(C)C)nn3)CC2)c1 [Compound B2L072-01, N-tert-Butylsulfonyl-6-[4-[[2-(5-ethoxypyridin-3-yl)phenyl]methyl]piperazin-1-yl]pyridazine-3-carboxamide] |  |  | ASMS ratio (%) n = 1 [2, 7]: −10.7%; ASMS ratio (%) n = 2 [2, 8]: 8.3%
CCOc1cncc(-c2ccc(CN3CCN(c4ccc(C(=O)NS(C)(=O)=O)cc4)CC3)c(CC)c2)c1 [Compound B2I050-01, 4-[4-[[4-(5-Ethoxypyridin-3-yl)-2-ethylphenyl]methyl]piperazin-1-yl]-N-methylsulfonylbenzamide] |  |  | ASMS ratio (%) n = 1 [2, 7]: 0.0%; ASMS ratio (%) n = 2 [2, 8]: −1.5%
CCOc1cncc(C#Cc2cc(C(=O)N3CCN(c4ccc(C(=O)NS(=O)(=O)C(C)(C)C)cc4)CC3)cc(C(F)(F)F)c2)c1 [Compound B2L042-01, N-tert-Butylsulfonyl-4-[4-[3-[2-(5-ethoxypyridin-3-yl)ethynyl]-5-(trifluoromethyl)benzoyl]piperazin-1-yl]benzamide] |  |  | ASMS ratio (%) n = 1 [2, 7]: 0.0%; ASMS ratio (%) n = 2 [2, 8]: 0.0%
CCOc1cncc(-c2cc(OC)c(CN3CCN(c4ccc(C(=O)NS(=O)(=O)CCC(F)(F)F)cc4)CC3)c(OC)c2)c1 [Compound B2N060-01, 4-[4-[[4-(5-Ethoxypyridin-3-yl)-2,6-dimethoxyphenyl]methyl]piperazin-1-yl]-N-(3,3,3-trifluoropropylsulfonyl)benzamide] | 0.0% | 0.0% | 

More lines, main results first:

ASMS ratio (%) n = 1 [2, 3] | ASMS ratio (%) n = 2 [2, 4] | SMILES | also measured
9.2% | 7.5% | CCOc1cncc(-c2ccc(C(C)N3CCN(c4ccc(C(=O)NS(=O)(=O)c5ccc(NCCSc6ccccc6)c(C(F)(F)F)c5)cc4)CC3)cc2)c1 (centres unmarked) [Compound B2R098-01, 4-[4-[1-[4-(5-Ethoxypyridin-3-yl)phenyl]ethyl]piperazin-1-yl]-N-[4-(2-phenylsulfanylethylamino)-3-(trifluoromethyl)phenyl]sulfonylbenzamide] | 
7.5% | −5.5% | CCOc1cccc(-c2ccc(CN3CCN(c4ccc(C(=O)NS(=O)(=O)c5ccc(NCCSc6ccccc6)c(C(F)(F)F)c5)cc4)CC3)c(CC)c2)c1 [Compound B2R049-01, 4-[4-[[4-(3-Ethoxyphenyl)-2-ethylphenyl]methyl]piperazin-1-yl]-N-[4-(2-phenylsulfanylethylamino)-3-(trifluoromethyl)phenyl]sulfonylbenzamide] | 
0.0% | 0.0% | CCOc1cncc(-c2cc(CN3CCN(c4ccc(C(=O)NS(=O)(=O)c5ccc(NCCSc6ccccc6)c(C(F)(F)F)c5)cc4)CC3)cc(C(F)(F)F)c2)c1 [Compound B2R062-01, 4-[4-[[3-(5-Ethoxypyridin-3-yl)-5-(trifluoromethyl)phenyl]methyl]piperazin-1-yl]-N-[4-(2-phenylsulfanylethylamino)-3-(trifluoromethyl)phenyl]sulfonylbenzamide] | 
35.3% | 13.1% | CCOc1cncc(-c2cc(CN3CCN(c4ccc(C(=O)NS(=O)(=O)c5ccc(NCCSc6ccccc6)c(C(F)(F)F)c5)nn4)CC3)cc(C(F)(F)F)c2)c1 [Compound B2R088-01, 6-[4-[[3-(5-Ethoxypyridin-3-yl)-5-(trifluoromethyl)phenyl]methyl]piperazin-1-yl]-N-[4-(2-phenylsulfanylethylamino)-3-(trifluoromethyl)phenyl]sulfonylpyridazine-3-carboxamide] | 
16.7% | 21.2% | CCOc1cncc(-c2ccc(CN3CCN(c4ccc(C(=O)NS(=O)(=O)c5ccc(NCCSc6ccccc6)c(C(F)(F)F)c5)nn4)CC3)c(OC)c2)c1 [Compound B2R080-01, 6-[4-[[4-(5-Ethoxypyridin-3-yl)-2-methoxyphenyl]methyl]piperazin-1-yl]-N-[4-(2-phenylsulfanylethylamino)-3-(trifluoromethyl)phenyl]sulfonylpyridazine-3-carboxamide] | 
0.0% | 0.0% | CCOc1cccc(-c2ccc(CN3CCN(c4ccc(C(=O)NS(=O)(=O)c5ccc(NCCSc6ccccc6)c(C(F)(F)F)c5)nn4)CC3)cc2F)c1 [Compound B2R077-01, 6-[4-[[4-(3-Ethoxyphenyl)-3-fluorophenyl]methyl]piperazin-1-yl]-N-[4-(2-phenylsulfanylethylamino)-3-(trifluoromethyl)phenyl]sulfonylpyridazine-3-carboxamide] | 
